Activity calls are given as the source filed them. No cut-off for these calls is given here.
Legend:
MDA-MB-231 = experiment: Antiproliferative activity against human MDA-MB-231 cells assessed as inhibition of cell proliferation incubated for 72 hrs by MTT assay; assay type: functional, cell-based; conditions: MDA-MB-231, 72 h
MCF7 = experiment: Antiproliferative activity against human MCF7 cells assessed as inhibition of cell proliferation incubated for 72 hrs by MTT assay; assay type: functional, cell-based; conditions: MCF7, 72 h
MDA-MB-468 = experiment: Antiproliferative activity against human MDA-MB-468 cells assessed as inhibition of cell proliferation incubated for 72 hrs by MTT assay; assay type: functional, cell-based; conditions: MDA-MB-468, 72 h
MX1 = experiment: Antiproliferative activity against human MX1 cells assessed as inhibition of cell proliferation incubated for 72 hrs by MTT assay; assay type: functional, cell-based; conditions: MX1, 72 h
[1] = biological target: T1, Heat shock protein HSP 90-alpha (Homo sapiens, UniProt P07900); experiment: Inhibition of 6His-tagged human HSP90alpha N-terminal domain (1 to 223 residues) expressed in Escherichia coli BL21 DE3 cells incubated for 24 hrs by fluorescence polarization assay
[2] = biological target: Heat shock protein HSP 90-beta (Homo sapiens, UniProt P08238); experiment: Inhibition of HSP90beta (unknown origin) incubated for 24 hrs by fluorescence polarization assay
Heat shock protein HSP 90-beta, sequence (P08238 whole entry): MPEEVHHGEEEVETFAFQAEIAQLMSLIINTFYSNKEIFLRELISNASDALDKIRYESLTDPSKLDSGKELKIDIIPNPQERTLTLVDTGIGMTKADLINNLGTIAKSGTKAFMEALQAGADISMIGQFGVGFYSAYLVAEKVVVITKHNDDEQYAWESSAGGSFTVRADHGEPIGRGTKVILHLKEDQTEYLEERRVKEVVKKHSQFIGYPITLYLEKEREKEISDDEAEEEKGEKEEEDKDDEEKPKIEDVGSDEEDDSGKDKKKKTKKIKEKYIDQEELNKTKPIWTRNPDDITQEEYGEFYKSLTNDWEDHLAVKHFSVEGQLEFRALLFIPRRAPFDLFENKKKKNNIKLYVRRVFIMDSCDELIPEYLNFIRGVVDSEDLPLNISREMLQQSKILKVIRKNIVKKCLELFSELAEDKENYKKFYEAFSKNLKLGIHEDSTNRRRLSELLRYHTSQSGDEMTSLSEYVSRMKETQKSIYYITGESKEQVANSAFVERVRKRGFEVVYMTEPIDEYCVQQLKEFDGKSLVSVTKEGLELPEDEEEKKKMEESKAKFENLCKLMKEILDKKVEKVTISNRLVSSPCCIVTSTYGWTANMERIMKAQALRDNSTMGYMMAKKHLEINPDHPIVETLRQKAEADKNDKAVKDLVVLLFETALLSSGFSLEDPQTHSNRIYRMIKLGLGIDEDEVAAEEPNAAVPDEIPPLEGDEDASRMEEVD

[3] = biological target: Protein cereblon/Heat shock protein HSP 90-beta (Homo sapiens) (UniProt P08238+Q96SW2); experiment: PROTAC activity at CRBN/HSP90beta in human MCF7 cells assessed as induction of HSP90beta degradation at 0.5 uM incubated for 8 hrs by Western blot analysis; assay type: cell-based
[4] = biological target: Protein cereblon/Heat shock protein HSP 90-alpha (Homo sapiens, UniProt P07900+Q96SW2); experiment: PROTAC activity at CRBN/HSP90alpha in human MCF7 cells assessed as induction of HSP90alpha degradation at 0.5 uM incubated for 8 hrs by Western blot analysis; assay type: cell-based
[5] = biological target: T1, Heat shock protein HSP 90-alpha; experiment: Induction of HSP90alpha degradation in human MCF7 cells at 0.5 uM incubated for 8 hrs by Western blot analysis; assay type: cell-based
[6] = Toxicity in BALB/c mouse implanted with mouse 4T1 cells assessed as effect on body weight at 50 mg/kg, ip administered twice a week and measured after 20 days; assay type: organism-based; conditions: in vivo, 480 h, time 20 day
[7] = biological target: T1, Heat shock protein HSP 90-alpha; experiment: Induction of HSP90alpha degradation in human MCF7 cells at 0.5 uM incubated for 8 hrs in presence of pomalidomide by Western blot analysis; assay type: cell-based
4T1 [8] = experiment: Antitumor activity against mouse 4T1 cells implanted in BALB/c mouse assessed as tumor growth inhibition at 50 mg/kg, ip administered twice a week and measured after 20 days relative to control; assay type: functional; conditions: 4T1, 480 h, time 20 day, read-out: TGI
4T1 [9] = experiment: Antitumor activity against mouse 4T1 cells implanted in BALB/c mouse assessed as reduction in tumor weight at 50 mg/kg, ip administered twice a week and measured after 20 days; assay type: functional, organism-based; conditions: time 20.0 day

Row | SMILES | IC50 (MDA-MB-231) [µM] | IC50 (MCF7) [µM] | IC50 (MDA-MB-468) [µM] | IC50 [1] [µM] | IC50 [2] [µM] | Activity [3] | Activity [4] | Activity [5] | Activity [7] | IC50 (MX1) [µM] | Activity [6] | inhibition in vivo at 50 mg/kg (4T1 [8]) [%] | Activity (4T1 [9])
1 | CC(C)c1cc(C(=O)N2Cc3ccc(CN4CCN(CCCCCC(=O)Nc5cccc6c5C(=O)N(C5CCC(=O)NC5=O)C6=O)CC4)cc3C2)ccc1O (stereo not drawn) | 71.8 | 30.5 | 30.1 |  |  |  |  |  |  | 34.6 |  |  | 
2 | CC(C)c1cc(C(=O)N2Cc3ccccc3C2)c(O)cc1O |  |  |  |  | 0.004 |  |  |  |  |  |  |  | 
3 | CC(C)c1cc(C(=O)N2Cc3ccc(CN4CCN(C(=O)CCCNc5cccc6c5CN(C5CCC(=O)NC5=O)C6=O)CC4)cc3C2)c(O)cc1O (stereo not drawn) | 7.87 | 3.42 | 25.8 |  |  | inactive | inactive |  |  | 1.19 |  |  | 
4 | CC(C)c1cc(C(=O)N2Cc3ccc(CN4CCN(C(=O)CCCCNc5cccc6c5CN(C5CCC(=O)NC5=O)C6=O)CC4)cc3C2)c(O)cc1O (stereo not drawn) | 4.3 | 1.3 | 13.2 |  |  | inactive | inactive |  |  | 2.02 |  |  | 
5 | CC(C)c1cc(C(=O)N2Cc3ccc(CN4CCN(C(=O)CCCCCNc5cccc6c5CN(C5CCC(=O)NC5=O)C6=O)CC4)cc3C2)c(O)cc1O (stereo not drawn) | 4.79 | 4.47 | 0.75 |  |  | inactive | inactive |  |  | 1.93 |  |  | 
6 | CC(C)c1cc(C(=O)N2Cc3ccc(CN4CCN(C)CC4)cc3C2)c(O)cc1O [ONALESPIB] | 2.6 | 0.84 | 3.31 |  |  |  |  | inactive | inactive | 0.5 | Toxic | 43.2 | Active

Continued, in another order:

Row | IC50 (MDA-MB-231) [µM] | IC50 (MCF7) [µM] | IC50 (MDA-MB-468) [µM] | IC50 [1] [µM] | IC50 [2] [µM] | Activity [3] | Activity [4] | Activity [5] | Activity [7] | SMILES | IC50 (MX1) [µM] | Activity [6] | inhibition in vivo at 50 mg/kg (4T1 [8]) [%] | Activity (4T1 [9])
7 |  |  |  | 3.21 | 1.6 |  |  |  |  | CC(C)c1ccc(O)c(C(=O)N2Cc3ccccc3C2)c1 |  |  |  | 
8 | > 100 | > 100 | > 100 |  |  |  |  | inactive |  | Nc1cccc2c1C(=O)N(C1CCC(=O)NC1=O)C2=O (stereo not drawn) [POMALIDOMIDE] | > 100 |  |  | 
9 | 94.2 | 48.2 | 87.1 |  |  |  |  |  |  | CC(C)c1cc(C(=O)N2Cc3ccc(CN4CCN(CCCCC(=O)Nc5cccc6c5C(=O)N(C5CCC(=O)NC5=O)C6=O)CC4)cc3C2)ccc1O (stereo not drawn) | 76.6 |  |  | 
10 | 18.8 | 4.28 | 5.27 |  |  | inactive | inactive |  |  | CC(C)c1cc(C(=O)N2Cc3ccc(CN4CCN(CCCCC(=O)Nc5cccc6c5C(=O)N(C5CCC(=O)NC5=O)C6=O)CC4)cc3C2)c(O)cc1O (stereo not drawn) | 6.78 |  |  | 
11 | > 100 | 27.1 | > 100 |  |  |  |  |  |  | CC(C)c1cc(C(=O)N2Cc3ccc(CN4CCN(CCC(=O)Nc5cccc6c5C(=O)N(C5CCC(=O)NC5=O)C6=O)CC4)cc3C2)ccc1O (stereo not drawn) | > 100 |  |  | 

Reference: ChEMBL document CHEMBL5625235, “Discovery of X10g as a selective PROTAC degrader of Hsp90α protein for treating breast cancer” (Eur J Med Chem, 2023)
